Among the data in patent US20250320224A1 (DOMAIN THERAPEUTICS, priority 2022, published 2025) are IC50 values, retold here.

Where a name gives a salt, the structure may show the parent alone.

This test concerns the target T1, human PAR-2 (hPAR-2) receptor (Homo sapiens, UniProt P55085).
T1 construct: expressed in HEK-293 cells in an endogenous manner; endogenous in cells; host or cells: HEK-293
T1 sequence (P55085 26-397): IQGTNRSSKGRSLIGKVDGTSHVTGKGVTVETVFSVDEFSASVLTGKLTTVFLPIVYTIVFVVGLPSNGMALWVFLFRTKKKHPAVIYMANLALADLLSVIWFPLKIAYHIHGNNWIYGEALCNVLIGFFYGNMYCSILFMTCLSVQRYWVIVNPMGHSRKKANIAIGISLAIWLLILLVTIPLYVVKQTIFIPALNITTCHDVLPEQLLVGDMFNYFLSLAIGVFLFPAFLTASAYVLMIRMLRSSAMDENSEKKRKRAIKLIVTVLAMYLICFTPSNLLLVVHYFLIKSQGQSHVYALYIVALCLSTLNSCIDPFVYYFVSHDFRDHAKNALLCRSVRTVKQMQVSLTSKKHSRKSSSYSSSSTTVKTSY
Nature of the test: In vitro human PAR-2 functional antagonist activity using calcium assays. Format: cell-based. As to conditions: hPAR-2 endogenously expressed in HEK-293 cells; stimulated by 2-Furoyl-LIGRLO-NH2 peptide; Fluo4AM intracellular calcium, FLIPR Tetra. Put shortly: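 Antagonism was measured as reduced calcium response to 2-Furoyl-LIGRLO-NH2 (dosed at its 80%-of-maximum concentration), recorded for 5 min. This followed a 10 min compound pre-incubation on Fluo4AM-loaded HEK-293 cells expressing native hPAR-2. Signals were normalised to buffer and agonist-alone controls.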
For orientation: IC50 means the concentration needed to halve the response being measured. As to `CO[C@@H]1CN(C(=O)c2ccc3c(n2)C(C)(C)CN3c2ccc(Cl)c(F)c2)CC[C@@H]1CC(=O)O` [Example 98, 2-((3S,4R)-1-(1-(4-chloro-3-fluorophenyl)-3,3-dimethyl-2,3-dihydro-1H-pyrrolo[3,2-b]pyridine-5-carbonyl)-3-methoxypiperidin-4-yl)acetic acid], the IC50 was in the range of 0.5 to 10 µM.

Turning to `Cc1cc(N2CCN(C(=O)c3ccc4c(n3)C3(CCCC3)CN4c3ccc(Cl)c(F)c3)C(C)(C)C2)nc(C)c1C(=O)O` [Example 8, 6-(4-(1′-(4-chloro-3-fluorophenyl)-1′,2′-dihydrospiro[cyclopentane-1,3′-pyrrolo[3,2-b]pyridine]-5′-carbonyl)-3,3-dimethylpiperazin-1-yl)-2,4-dimethylnicotinic acid], the IC50 is < 0.5 µM. Then `CC1(C)CN(c2ccc(Cl)c(F)c2)c2ccc(C(=O)N3CCC4(C3)C(=O)Nc3ccccc34)nc21` (stereo not drawn) [Example 120, 1′-(1-(4-chloro-3-fluorophenyl)-3,3-dimethyl-2,3-dihydro-1H-pyrrolo[3,2-b]pyridine-5-carbonyl)spiro[indoline-3,3′-pyrrolidin]-2-one], with > 10 µM; and `CO[C@H]1CCC2(C1)CN(c1ccc(Cl)c(F)c1)c1ccc(C(=O)N3CCN(c4cc(C)c(C(=O)O)c(C)n4)CC3(C)C)nc12` (stereo partly drawn) [Example 146, 6-(4-((3S)-1′-(4-chloro-3-fluorophenyl)-3-methoxy-1′,2′-dihydrospiro[cyclopentane-1,3′-pyrrolo[3,2-b]pyridine]-5′-carbonyl)-3,3-dimethylpiperazin-1-yl)-2,4-dimethylnicotinic acid], with < 0.5 µM. Under `CC1(C)CC2(CN(c3ccc(F)c(F)c3)c3ncc(C(=O)N4CCNC(=O)C4(C)C)nc32)C1` [Example 282, 4-(5′-(3,4-difluorophenyl)-3,3-dimethyl-5′,6′-dihydrospiro[cyclobutane-1,7′-pyrrolo[2,3-b]pyrazine]-2′-carbonyl)-3,3-dimethylpiperazin-2-one] stands < 0.5 µM; under `CC1(C)CN(c2ccc(Cl)c(F)c2)c2ccc(C(=O)N3CCN(c4cnccc4C(=O)O)CC3(C)C)nc21` [Example 107, 3-(4-(1-(4-chloro-3-fluorophenyl)-3,3-dimethyl-2,3-dihydro-1H-pyrrolo[3,2-b]pyridine-5-carbonyl)-3,3-dimethylpiperazin-1-yl)isonicotinic acid], 0.5 to 10 µM; under `CC1(C)CN(c2ccc(Cl)c(F)c2)c2ccc(C(=O)N3CCNC(=O)CC3(C)C)nc21` [Example 74, 1-(1-(4-chloro-3-fluorophenyl)-3,3-dimethyl-2,3-dihydro-1H-pyrrolo[3,2-b]pyridine-5-carbonyl)-7,7-dimethyl-1,4-diazepan-5-one], < 0.5 µM. Take `CC(C)CN1CC(C)(c2ccc(Cl)c(F)c2)c2ccc(C(=O)N3CCN(c4ccc(CC(=O)O)cn4)CC3(C)C)nc21` (stereo not drawn) [Example 257, 2-(6-(4-(3-(4-chloro-3-fluorophenyl)-1-isobutyl-3-methyl-2,3-dihydro-1H-pyrrolo[2,3-b]pyridine-6-carbonyl)-3,3-dimethylpiperazin-1-yl)pyridin-3-yl)acetic acid]: the IC50 lay in the range of 0.5 to 10 µM.

As for `CC1(C)CN(c2ccc(CC(=O)O)cn2)CCN1C(=O)c1cc2n(n1)C(C)(C)CN(c1ccc(Cl)c(F)c1)C2` [Example 195, 2-(6-(4-(5-(4-chloro-3-fluorophenyl)-7,7-dimethyl-4,5,6,7-tetrahydropyrazolo[1,5-a]pyrazine-2-carbonyl)-3,3-dimethylpiperazin-1-yl)pyridin-3-yl)acetic acid], the IC50 was in the range of 0.5 to 10 µM. With `Cc1sc(N2CCN(C(=O)c3ccc4c(n3)C(C)(C)CN4c3ccc(Cl)c(F)c3)C(C)(C)C2)nc1C(=O)O` [Example 73, 2-(4-(1-(4-chloro-3-fluorophenyl)-3,3-dimethyl-2,3-dihydro-1H-pyrrolo[3,2-b]pyridine-5-carbonyl)-3,3-dimethylpiperazin-1-yl)-5-methylthiazole-4-carboxylic acid hydrochloride], the IC50 is < 0.5 µM. Then `Cc1cc(N2CCN(C(=O)c3ccc4c(n3)C3(CCOCC3)CN4c3ccc(Cl)c(F)c3)C(C)(C)C2)nc(C)c1C(=O)O` [Example 56, 6-(4-(1′-(4-chloro-3-fluorophenyl)-1′,2,2′,3,5,6-hexahydrospiro[pyran-4,3′-pyrrolo[3,2-b]pyridine]-5′-carbonyl)-3,3-dimethylpiperazin-1-yl)-2,4-dimethylnicotinic acid], with < 0.5 µM; and `CC1(C)CC2(CN(c3ccc(Cl)c(F)c3)c3ncc(C(=O)N4CCN(C(=O)CCCCCCC(=O)O)CC4(C)C)nc32)C1` [Example 260, 8-(4-(5′-(4-chloro-3-fluorophenyl)-3,3-dimethyl-5′,6′-dihydrospiro[cyclobutane-1,7′-pyrrolo[2,3-b]pyrazine]-2′-carbonyl)-3,3-dimethylpiperazin-1-yl)-8-oxooctanoic acid], with < 0.5 µM.

As to `Cc1cc(N2CCN(C(=O)c3ccc4c(n3)C(C)(C)CN4c3cccc(F)c3)C(C)(C)C2)nc(C)c1C(=O)O` [Example 17, 6-(4-(1-(3-fluorophenyl)-3,3-dimethyl-2,3-dihydro-1H-pyrrolo[3,2-b]pyridine-5-carbonyl)-3,3-dimethylpiperazin-1-yl)-2,4-dimethylnicotinic acid], the IC50 was < 0.5 µM. Turning to `Cc1nc(N2CCN(C(=O)c3ccc4c(n3)C(C)(C)CN4c3ccc(Cl)c(F)c3)C(C)(C)C2)sc1CC(=O)O` [Example 71, 2-(2-(4-(1-(4-chloro-3-fluorophenyl)-3,3-dimethyl-2,3-dihydro-1H-pyrrolo[3,2-b]pyridine-5-carbonyl)-3,3-dimethylpiperazin-1-yl)-4-methylthiazol-5-yl)acetic acid], the IC50 was < 0.5 µM. Then `COC(=O)CCCCCCC(=O)N1CCN(C(=O)c2cnc3c(n2)C2(CN3c3ccc(Cl)c(F)c3)CC(C)(C)C2)C(C)(C)C1` [Example 259, methyl 8-(4-(5′-(4-chloro-3-fluorophenyl)-3,3-dimethyl-5′,6′-dihydrospiro[cyclobutane-1,7′-pyrrolo[2,3-b]pyrazine]-2′-carbonyl)-3,3-dimethylpiperazin-1-yl)-8-oxooctanoate], with < 0.5 µM; and `CC1(C)C(=O)NCCN1C(=O)c1ccc2c(n1)C1(CC1)CN2c1ccc(Cl)c(F)c1` [Example 57, 4-(1′-(4-chloro-3-fluorophenyl)-1′,2′-dihydrospiro[cyclopropane-1,3′-pyrrolo[3,2-b]pyridine]-5′-carbonyl)-3,3-dimethylpiperazin-2-one], with < 0.5 µM; and `Cc1cc(N(C)CCN(C)C(=O)c2ccc3c(n2)C(C)(C)CN3c2ccc(Cl)c(F)c2)nc(C)c1C(=O)O` [Example 50, 6-((2-(1-(4-chloro-3-fluorophenyl)-N,3,3-trimethyl-2,3-dihydro-1H-pyrrolo[3,2-b]pyridine-5-carboxamido)ethyl)(methyl)amino)-2,4-dimethylnicotinic acid], with 0.5 to 10 µM. On to `Cc1cc(N2CCN(C(=O)c3cnc4c(n3)C(C)(C)CN4c3ccc(C(F)(F)F)c(Cl)c3)C(C)(C)C2)nc(C)c1C(=O)O` [Example 193, 6-(4-(5-(3-chloro-4-(trifluoromethyl)phenyl)-7,7-dimethyl-6,7-dihydro-5H-pyrrolo[2,3-b]pyrazine-2-carbonyl)-3,3-dimethylpiperazin-1-yl)-2,4-dimethylnicotinic acid], for which the IC50 is < 0.5 µM.
